Reference: publication PMC10011573, “Development of novel broad-spectrum antimicrobial lipopeptides derived from plantaricin NC8 β” (Scientific Reports, 2023)
≈ marks a conversion by molar mass, not a printed value. Like-named read-outs stand apart in the source and are kept apart here. Residues, ends and D or L forms follow the SMILES beside them. *: point of attachment. Pentanoyl = CCCCC(=O)*

Legend:
A. baumannii = conditions: 20 h
E. cloacae = conditions: 20 h
E. coli (K-12 MG1655) [1] = conditions: Table 3; K-12 MG1655; broth microdilution, 50:50 PBS/LB-broth, 200 µL, 20 h, 37 °C
E. faecium = conditions: 20 h
K. pneumoniae = conditions: 20 h
P. aeruginosa = conditions: 20 h
[2] = tested on: S. aureus (ATCC 29213, MSSA); conditions: ATCC 29213, 20 h
[3] = Carboxyfluorescein release assay, mammalian liposome model; type: biochemical; conditions: 65:5:30 POPC:POPS:Chol. liposomes, 25 µM lipid, 10 mM PBS pH 7.4, 10^–5–10^2 µM peptide, 60 min, fluorescence, Hill fit, n = 3; read-out: EC50 Mammalial (concentration that triggers 50% CF release)
Outline: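 CF-loaded extruded 0.1 µm unilamellar liposomes: bacterial POPC:POPG 75:25, mammalian POPC:POPS:Chol 65:5:30. Liposomes at 25 µM lipid in PBS pH 7.4 incubated with peptide (10^–5–10^2 µM; n = 3), fluorescence read every 2.5 min for 1 h. Release normalized to 1% Triton X-100; EC50 from Hill-1 fit.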

E. coli (K-12 MG1655) [4] = type: cell-based; conditions: K-12, 20 h
Experimental: The broth microdilution method was used to determine minimal inhibitory concentration (MIC) and minimal bactericidal concentration (MBC), in accordance with the EUCAST standards for the broth microdilution method. Two-fold serial dilutions of the lipopeptides were used, and the final concentrations ranged from 0.19 to 100 µM. In brief, two-fold serial dilutions of the lipopeptides were performed in a 96-well plate in PBS, with a final volume of 100 µl per well, after which 100 µl of LB-broth media containing approximately 5 × 10^5 CFU/ml of bacteria was added to each well. The plate was then incubated for 20 h in 37 °C on a shaker (400 rpm). The effect of lipopeptide-antibiotic combinations was investigated by performing checkerboard assays. The assays were performed in accordance with the MIC and MBC tests conducted above, but with horizontal and longitudinal two-fold serial dilutions of the tested compounds. […] The fractional inhibitory concentration (FIC) and fractional bactericidal concentration (FBC) were calculated by the equation (MIC or MBC of peptide in combination/MIC or MBC of peptide alone) + (MIC or MBC of antibiotic in combination/MIC or MBC of antibiotic alone). Synergy was defined as FIC/FBC ≤ 0.5, additive when 0.5 < FIC/FBC ≤ 1, indifferent when 1 < FIC/FBC < 2 and antagonistic when FIC/FBC ≥ 2. All experiments were repeated at least three times.

E. coli = tested on: E. coli
Experimental: (§1) In order to evaluate the risk of the development of resistance towards the lipopeptide, a serial passage assay was conducted. […] MIC and MBC were determined for passages 0, 10, 20 and 30, using the broth microdilution method and compared with the unexposed bacteria (passage 0).

S. aureus = tested on: S. aureus
Experimental: as §1

[5] = E. coli p0 (unexposed bacteria, passage 0)
[6] = E. coli p10, cultured with 1 µM L-6-C5 in LB-broth
[7] = E. coli p20, cultured with 1 µM L-6-C5 in LB-broth
[8] = E. coli p30, cultured with 1 µM L-6-C5 in LB-broth
[9] = S. aureus p0 (unexposed bacteria, passage 0)
[10] = S. aureus p10, cultured with 1 µM L-6-C5 in LB-broth
[11] = S. aureus p20, cultured with 1 µM L-6-C5 in LB-broth
[12] = S. aureus p30, cultured with 1 µM L-6-C5 in LB-broth

CCCCC(=O)N[C@@H](CC(C)C)C(=O)NCC(=O)N[C@H](C(=O)N[C@@H](CCCCN)C(=O)N[C@H](C(=O)N[C@@H](CC(C)C)C(=O)N[C@@H](Cc1c[nH]c2ccccc12)C(=O)N[C@@H](CO)C(=O)N[C@@H](C)C(=O)N[C@@H](Cc1ccc(O)cc1)C(=O)N[C@@H](CCCCN)C(=O)N[C@@H](Cc1c[nH]cn1)C(=O)N[C@@H](CCCNC(=N)N)C(=O)N[C@@H](CCCCN)C(=O)N[C@H](C(=O)N[C@H](C(N)=O)[C@@H](C)CC)[C@@H](C)O)[C@@H](C)CC)[C@@H](C)CC [L-6-C5] (Pentanoyl-LGIKILWSAYKHRKTI-NH2)
MBC (A. baumannii): 6.3 µM | MIC (A. baumannii): 3.1 µM | MBC (E. cloacae): > 100 µM | MIC (E. cloacae): > 100 µM | E. coli MBC (E. coli (K-12 MG1655) [1]): 6.2 µM | E. coli MIC (E. coli (K-12 MG1655) [1]): 6.2 µM | MBC (E. faecium): 12.5 µM | MIC (E. faecium): 6.3 µM | MBC (K. pneumoniae): 100 µM | MIC (K. pneumoniae): 50 µM | MBC (P. aeruginosa): 100 µM | MIC (P. aeruginosa): 50 µM | S. aureus MBC [2]: 6.2 µM | S. aureus MIC [2]: 6.2 µM | EC50 [3]: 10.5 µM | E. coli MBC, lipopeptide alone (E. coli (K-12 MG1655) [4]): 6.25 µM | E. coli MIC, lipopeptide alone (E. coli (K-12 MG1655) [4]): 6.25 µM | MBC (E. coli; [5]): 6.3 µM (≈ 12.7 µg/mL) | MIC (E. coli; [5]): 6.3 µM (≈ 12.7 µg/mL) | MBC (E. coli; [6]): 6.3 µM (≈ 12.7 µg/mL) | MIC (E. coli; [6]): 6.3 µM (≈ 12.7 µg/mL) | MBC (E. coli; [7]): 6.3 µM (≈ 12.7 µg/mL) | MIC (E. coli; [7]): 6.3 µM (≈ 12.7 µg/mL) | MBC (E. coli; [8]): 6.3 µM (≈ 12.7 µg/mL) | MIC (E. coli; [8]): 6.3 µM (≈ 12.7 µg/mL) | MBC (S. aureus; [9]): 6.3 µM (≈ 12.7 µg/mL) | MIC (S. aureus; [9]): 6.3 µM (≈ 12.7 µg/mL) | MBC (S. aureus; [10]): 6.3 µM (≈ 12.7 µg/mL) | MIC (S. aureus; [10]): 6.3 µM (≈ 12.7 µg/mL) | MBC (S. aureus; [11]): 6.3 µM (≈ 12.7 µg/mL) | MIC (S. aureus; [11]): 6.3 µM (≈ 12.7 µg/mL) | MBC (S. aureus; [12]): 6.3 µM (≈ 12.7 µg/mL) | MIC (S. aureus; [12]): 6.3 µM (≈ 12.7 µg/mL)
